Assay results as given in patent publication US12599597B2, “Substituted N-benzhydrylacetamide inhibitors of jumanji domain histone demethylases for the treatment of cancer” (University of Kentucky Research Foundation, priority 2020, dated 2026).

Key:
[1] = system: CRC organoids from Apc^f/+/Kras^LSL-G12D/Villin-Cre mice; test: Mouse CRC organoids formation; assay type: cell-based; settings: 3 μM; p<0.01
Method: FIGS. 11A-B show an image and a graph illustrating mouse CRC organoids. (A) CRC organoids from Apc^f/+/Kras^LsL-G12D/Villin-Cre mice. (B) CBA-1 (3 μM) inhibited CRC organoids (*p<0.01; n=3).
CRC organoids models. To analyze the effects of CBA-1 in CRC, a colon cancer organoid model was established from Apc^f/+/Kras^LSL-G12D/Villin-Cre mice (FIG. 11A).

[2] = system: Wnt target genes in LS174T colon cancer cells; test: Western blotting of Wnt target genes in colon cancer cells; assay type: cell-based
Source text: The activities of 58B1 were validated by western blotting.
Identification of a CBA-1 as a novel Wnt inhibitor. The present inventors routinely use TOPFlash reporter assay for Wnt inhibitor screening. To mimic the constitutively active Wnt signaling found in CRC cells, Wnt signaling was activated by inhibiting GSK3 and stabilizing β-catenin. From screening in house small-molecule libraries, CBA-1 (FIG. 4) was identified that inhibited Wnt signaling in TOPFlash reporter assay. To validate the screening results, CBA-1 was tested in CRC cells.

[3] = target: T1, JMJD1A (KDM3A) (Homo sapiens, UniProt Q9Y4C1); test: Histone demethylase assay / KDM3A enzymatic activity in vitro; assay type: biochemical
T1 sequence (Q9Y4C1 1-1321): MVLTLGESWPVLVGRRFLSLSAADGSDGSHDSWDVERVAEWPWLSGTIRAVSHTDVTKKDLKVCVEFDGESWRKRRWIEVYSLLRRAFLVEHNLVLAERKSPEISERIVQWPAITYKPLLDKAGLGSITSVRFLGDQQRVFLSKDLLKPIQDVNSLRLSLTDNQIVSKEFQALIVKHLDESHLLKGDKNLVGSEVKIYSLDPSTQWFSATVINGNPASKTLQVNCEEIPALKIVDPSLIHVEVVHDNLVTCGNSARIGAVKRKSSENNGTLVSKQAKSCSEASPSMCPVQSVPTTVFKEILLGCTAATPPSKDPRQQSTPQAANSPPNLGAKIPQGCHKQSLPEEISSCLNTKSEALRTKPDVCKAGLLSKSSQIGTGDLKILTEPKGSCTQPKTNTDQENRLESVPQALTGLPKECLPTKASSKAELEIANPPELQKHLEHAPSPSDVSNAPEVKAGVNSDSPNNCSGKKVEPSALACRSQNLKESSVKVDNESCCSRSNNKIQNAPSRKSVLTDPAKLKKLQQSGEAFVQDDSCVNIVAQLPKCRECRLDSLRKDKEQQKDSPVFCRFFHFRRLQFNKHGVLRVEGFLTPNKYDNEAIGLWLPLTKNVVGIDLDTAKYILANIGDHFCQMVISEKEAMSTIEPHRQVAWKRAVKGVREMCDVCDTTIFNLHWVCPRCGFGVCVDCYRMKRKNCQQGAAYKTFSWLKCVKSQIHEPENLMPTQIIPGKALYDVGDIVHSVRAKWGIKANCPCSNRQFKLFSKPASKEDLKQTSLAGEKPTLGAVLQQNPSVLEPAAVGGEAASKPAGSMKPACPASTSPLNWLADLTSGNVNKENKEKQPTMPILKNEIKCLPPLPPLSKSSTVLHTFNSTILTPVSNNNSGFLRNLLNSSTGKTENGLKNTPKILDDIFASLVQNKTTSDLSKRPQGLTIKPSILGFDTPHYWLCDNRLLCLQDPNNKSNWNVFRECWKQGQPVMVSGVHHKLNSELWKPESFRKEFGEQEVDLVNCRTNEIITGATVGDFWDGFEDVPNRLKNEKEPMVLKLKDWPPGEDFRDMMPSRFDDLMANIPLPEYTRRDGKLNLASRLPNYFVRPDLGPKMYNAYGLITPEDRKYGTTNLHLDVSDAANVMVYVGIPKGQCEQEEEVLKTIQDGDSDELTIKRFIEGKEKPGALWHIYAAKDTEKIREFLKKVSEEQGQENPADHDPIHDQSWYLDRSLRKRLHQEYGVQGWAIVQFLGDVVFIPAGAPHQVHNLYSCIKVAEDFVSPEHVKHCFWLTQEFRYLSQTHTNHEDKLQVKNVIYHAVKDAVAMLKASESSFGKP
Source text: Histone Demethylase Assay
To further examine the effects of 58B1 on histone demethylase, we screened a panel of purified histone demethylases was screened.
Identification of KDM3A as a target of CBA-1. KDM3A regulated H3K9Me^2 and underwent significant upregulation in CRC. To test if CBA-1 targeted KDM3A, a biotinylated analog CBA-B2 (FIG. 7A) was synthesized. […] Knocking-down KDM3A by shRNA inhibited cell proliferation (FIG. 7D) and Wnt target gene expression in LS174T CRC cells (FIG. 7E).
(§1) Repurposing drugs as CBA-1 analogs and KDM3 inhibitors. CBA-1 is a specific and potent KDM3A inhibitor. As backup candidates, two approved drugs were identified as CBA-1 analogs and KDM3A inhibitors. Based on the docking study (FIGS. 8A-B), the N and OH groups (red color in FIG. 12A) are critical in binding the Mn^2+ in KDM3A. […] A virtual screening was performed and several antibiotics that have similar structures were identified. Two of these antibiotics, clioquinol and nitroxoline (FIG. 12B), indeed inhibited the enzymatic activities of KDM3 (FIGS. 12C and D). These two drugs were tested in LS174T tumor xenograft model in SCID mice. […] Nitroxoline has been used in Europe for over 50 years as an antibiotic. It has anticancer effects, but the mechanism remains unclear.

[4] = system: CRC cells; test: CRC cell proliferation; assay type: cell-based
Source text: KDM3A is a Jumonji domain-containing demethylase that regulates the demethylation of histone H3's lysine 9 (H3K9Me^2).

[5] = target: KDM3B (Homo sapiens, UniProt Q7LBC6); test: KDM3B enzymatic activity; assay type: biochemical; settings: at 10 μM
KDM3B, sequence (Q7LBC6 whole entry, the tested form may be a part): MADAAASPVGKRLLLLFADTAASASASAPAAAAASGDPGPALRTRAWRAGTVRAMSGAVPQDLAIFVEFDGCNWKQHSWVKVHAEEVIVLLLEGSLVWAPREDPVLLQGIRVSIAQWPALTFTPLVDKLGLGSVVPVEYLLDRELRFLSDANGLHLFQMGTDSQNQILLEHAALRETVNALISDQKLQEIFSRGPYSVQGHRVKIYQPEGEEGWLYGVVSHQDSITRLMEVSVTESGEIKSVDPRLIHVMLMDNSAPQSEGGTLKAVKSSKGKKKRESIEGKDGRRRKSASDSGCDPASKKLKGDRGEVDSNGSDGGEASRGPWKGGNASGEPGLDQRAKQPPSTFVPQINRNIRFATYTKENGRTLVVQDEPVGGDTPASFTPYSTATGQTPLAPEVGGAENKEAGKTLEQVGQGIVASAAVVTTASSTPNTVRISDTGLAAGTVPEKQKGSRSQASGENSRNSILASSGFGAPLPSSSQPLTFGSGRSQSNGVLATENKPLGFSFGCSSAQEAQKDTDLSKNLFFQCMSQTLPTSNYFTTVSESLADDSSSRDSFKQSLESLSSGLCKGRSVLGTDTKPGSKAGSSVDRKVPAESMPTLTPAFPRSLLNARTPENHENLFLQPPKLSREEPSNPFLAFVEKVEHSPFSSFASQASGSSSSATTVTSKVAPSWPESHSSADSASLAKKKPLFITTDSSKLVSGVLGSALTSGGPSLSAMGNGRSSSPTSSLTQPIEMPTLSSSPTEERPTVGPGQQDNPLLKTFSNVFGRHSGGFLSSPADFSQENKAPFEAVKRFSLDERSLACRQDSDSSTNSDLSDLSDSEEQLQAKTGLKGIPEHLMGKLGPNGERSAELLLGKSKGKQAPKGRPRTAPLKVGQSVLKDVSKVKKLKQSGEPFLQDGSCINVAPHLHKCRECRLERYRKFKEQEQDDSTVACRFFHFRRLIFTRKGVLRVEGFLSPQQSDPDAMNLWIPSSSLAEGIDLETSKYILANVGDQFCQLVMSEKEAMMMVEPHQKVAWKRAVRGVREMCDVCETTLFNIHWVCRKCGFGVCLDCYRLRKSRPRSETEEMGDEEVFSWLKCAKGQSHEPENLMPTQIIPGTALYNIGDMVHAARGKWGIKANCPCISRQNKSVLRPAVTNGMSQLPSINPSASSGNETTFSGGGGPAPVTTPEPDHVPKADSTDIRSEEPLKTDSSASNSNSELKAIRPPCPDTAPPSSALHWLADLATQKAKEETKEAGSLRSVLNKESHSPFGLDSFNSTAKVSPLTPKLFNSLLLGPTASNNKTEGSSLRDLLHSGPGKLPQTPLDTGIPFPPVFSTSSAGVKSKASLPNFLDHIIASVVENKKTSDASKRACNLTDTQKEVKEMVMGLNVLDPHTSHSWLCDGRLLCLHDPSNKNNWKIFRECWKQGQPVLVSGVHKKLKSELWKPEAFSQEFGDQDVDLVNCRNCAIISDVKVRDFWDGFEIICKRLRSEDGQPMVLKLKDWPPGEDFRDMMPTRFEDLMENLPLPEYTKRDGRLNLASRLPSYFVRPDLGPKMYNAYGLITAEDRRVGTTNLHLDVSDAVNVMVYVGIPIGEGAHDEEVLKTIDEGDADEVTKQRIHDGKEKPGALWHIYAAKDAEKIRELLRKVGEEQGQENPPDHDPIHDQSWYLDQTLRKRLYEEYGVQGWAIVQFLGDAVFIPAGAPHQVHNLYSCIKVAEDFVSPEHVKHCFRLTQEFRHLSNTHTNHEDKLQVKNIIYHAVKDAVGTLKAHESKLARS
Source text: Other KDM3 members as CBA-1 targets. Inhibition of KDM3A by CBA-1 increased H3K9Me^2 and inhibited Wnt signaling; however, other KDM3 members may also regulate H3K9 methylation. For example, both KDM3B and KDM3C (JMJD1C) regulated Wnt signaling. Given the high similarity of their structures (FIG. 10A), particularly the JmjC domains, it is believed that CBA-1 would inhibit KDM3B and KDM3C as well. […] CBA-1 coordinated with Mn^2+ at a longer distance in KDM3B (3.9 Å) than the distance in KDM3A (2.8 Å) (FIGS. 8B and 10B). This could be one of the reasons that CBA-1 inhibited KDM3A better than KDM3B.
as §1

CCCC(=O)NC(c1ccc(N(CC)CC)cc1)c1cc(Cl)c2cccnc2c1O (centres unmarked) [58B1]
mouse CRC organoids formation [1]: significantly inhibited
expression of Wnt target genes ([2]; 5 μM, LS174T, western blotting): strongly inhibited
expression of Wnt target genes ([2]; CRC cells (LS174T), concentration not given): repressed
inhibition at 10 µM ([3]; 58B1, 10 μM): 99%
KDM3A activity in vitro, dose-response study ([3]; at low micromolar levels): inhibited
CRC cell proliferation ([4]; at 100 nM concentration): inhibited
sensitivity of CRC cells compared with normal colon cells ([4]; expected): more sensitive
KDM3B inhibition [5]: weakly inhibits
